Test results as given in paper PMC6547740, “Potent and specific MTH1 inhibitors targeting gastric cancer” (Cell Death & Disease, 2019).

Experiments:
MTH2 = target: T1, MTH2 (Homo sapiens, UniProt Q9NV35); test: Cellular thermal shift assay (CETSA), MTH2; assay type: binding; conditions: MGC-803 cells, 50 µM compound, heated 10 min from 43 to 61 °C
T1 construct: endogenous in cells; host or cells: MGC-803 (human gastric cancer cell line)
Method: (§1) Cellular thermal shift assay (CETSA), also known as the target engagement assay was one-way to detect the intracellular interaction ability of compounds with its specific target. Firstly, cells were seeded into T75 culture flasks and cultured overnight. Then, the cells were treated with cell media containing 1‰ DMSO as blank control and candidate compounds for 3–5 h. Next, the cells were collected by centrifugation and resuspended by PBS, then the cells were aliquoted into 7 PCR tubes and heated using PCR instrument for 10 min from 43 to 61 °C. After that, cells were lysed using liquid nitrogen and three repeated cycles of freeze-thawing. Then, samples were centrifuged at 12,000 × g for 20 min at 4 °C. Supernatants were denatured at 100 °C for 10 min and kept at −20 °C until Western Blot analysis.

OGG1 = target: T2, OGG1 (Homo sapiens, UniProt O15527); test: Cellular thermal shift assay (CETSA), OGG1; assay type: binding; conditions: MGC-803 cells, 50 µM compound, heated 10 min from 43 to 61 °C
T2 construct: endogenous in cells; host or cells: MGC-803 (human gastric cancer cell line)
T2 sequence (O15527 whole entry): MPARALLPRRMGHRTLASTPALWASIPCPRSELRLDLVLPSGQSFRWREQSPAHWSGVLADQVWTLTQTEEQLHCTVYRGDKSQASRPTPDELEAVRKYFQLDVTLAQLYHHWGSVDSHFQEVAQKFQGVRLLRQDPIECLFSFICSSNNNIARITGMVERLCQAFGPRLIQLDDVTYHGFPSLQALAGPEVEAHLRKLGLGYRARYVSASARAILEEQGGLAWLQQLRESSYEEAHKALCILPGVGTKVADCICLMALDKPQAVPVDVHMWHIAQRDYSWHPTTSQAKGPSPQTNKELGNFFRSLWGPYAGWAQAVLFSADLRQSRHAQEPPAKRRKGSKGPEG
Method: as §1

L02 cells = test: MTT cell viability, L02; assay type: cell-based; conditions: Homo sapiens, normal liver cell line, 72 h
Method: (§2) The cell viability was determined by 3-(4,5-dimethylthiazol-2-yl)-2,5-diphenyltetrazolium bromide (MTT) assay, according to the manufacturer’s instructions. 1 day before treatment, cells were seeded into 96-well plates at a concentration of 2–5 × 10^3 cells per well, followed by treatment with fresh medium containing serial dilutions of candidate compounds for 48 or 72 h, 20 μL of MTT solution (5 mg/mL in PBS) was then added to each well. After treatment, the plates were incubated at 37 °C for another 4 h. Subsequently, the MTT solution was removed and 150 μL of DMSO was added to each well for 10 min, and then the plates were shaken to dissolve the dark blue crystal (formazan), the absorbance was detected at 570 nm using a BioTek microplate reader. The data were analyzed using SPSS 20 software.

HL-7702 cells = test: MTT cell viability, HL-7702; assay type: cell-based; conditions: Homo sapiens, L02, normal liver cell line, 72 h
Method: as §2

Het-1A cells = test: MTT cell viability, Het-1A; assay type: cell-based; conditions: Homo sapiens, normal esophageal epithelial cell line, 72 h
Method: as §2

GES-1 cells [1] = test: MTT cell viability, GES-1; assay type: cell-based; conditions: Homo sapiens, GES1, normal gastric epithelial cell line, 72 h
Method: as §2

ZIP177 cells = test: MTT cell viability, ZIP177; assay type: cell-based; conditions: Homo sapiens, liver cancer cell line, 72 h
Method: as §2

EC109 cells = test: MTT cell viability, EC109; assay type: cell-based; conditions: Homo sapiens, ECa-109, esophageal cancer cell line, 72 h
Method: as §2

TE-1 cells = test: MTT cell viability, TE-1; assay type: cell-based; conditions: Homo sapiens, 72 h
Method: as §2

MGC-803 cells [2] = test: MTT cell viability, MGC-803; assay type: cell-based; conditions: Homo sapiens, gastric cancer cell line, 72 h
Method: as §2

SGC-7901 cells = test: MTT cell viability, SGC-7901; assay type: cell-based; conditions: Homo sapiens, gastric cancer cell line, 72 h
Method: as §2

pc9 cells = test: MTT cell viability, pc9; assay type: cell-based; conditions: Homo sapiens, PC-9, 72 h
Method: as §2

MGC-803 cells [3] = test: Colony formation assay, MGC-803; assay type: cell-based, human; conditions: MGC-803, 7 days treatment, compared with DMSO or MI-929
Method: (§3) The day before treatment, cells were seeded into six-well plates at a concentration of 1 × 10^3 cells per well, and then the media were replaced with fresh media containing serial concentrations of candidate compounds. After 7 days of treatment, the cells were fixed with 75% ethanol, stained with 0.1% crystal violet solution and captured by the microscopy (Leica). After that, the crystal violet crystals were dissolved by adding methanol. The absorbance at 595 nm was measured by a BioTek micro plate reader. In the end, the data were analyzed using the GraphPad Prism 5 software.

GES-1 cells [4] = test: Colony formation assay, GES-1; assay type: cell-based, human; conditions: GES-1 gastric normal cells, 7 days treatment
Method: as §3

MGC-803 cells [5] = test: 8-oxo-dG assay (Cy3-conjugated avidin), MGC-803; assay type: cell-based, human; conditions: MGC-803, 5 µM, 48 h, compared with DMSO
Method: Intracellular 8-oxo-dG levels were measured by staining with Cy3-conjugated avidin[65]. Cells were seeded on coverslips in 24-well plates (1–1.5 × 10^4 cells/well) overnight, and then transfected with candidate compounds. After 48 h, the cells were fixed with ice-cold methanol in Tris-buffered saline (TBS) for 15 min and blocked, using TBS with 0.1% Triton X-100 and 15% fetal bovine serum for 1 h. Then, the cells were stained with Cy3-conjugated avidin (0.5 µg/mL) for 1 h at room temperature. DNA was counterstained with 4,6-diamidino-2-phenylindole(DAPI). Images were acquired in a Nikon Eclipse TE 2000-S fluorescence microscope.

MGC-803 cells [6] = test: Western blot of DNA damage response markers, MGC-803; assay type: cell-based, human; conditions: MGC-803, 1-12 µM 48 h or 12 µM 12-48 h, dose and time-dependently, vs DMSO
Method: MGC-803, HGC-27 and GES-1 cells were seeded into 100mm^2 plastic dishes(1 × 10^5 cells/well) and incubated overnight prior to the addition of compound MI-743 at 1, 2, 4, 8 and 12 µM for 48 h or compound MI-743 at 12 µM for 12, 24, 36 and 48 h, respectively. After treatment, the cells were harvested and lysed with RIPA cell lysis buffer, containing protease inhibitor cocktail. Then, the cells were centrifuged at 12,000 × g for 20 min at 4 °C. The supernatant were collected and the concentration was determined by a Bicinchoninic Acid (BCA) Protein Assay kit, denatured at 100 °C for 10 min, separated by SDS−PAGE and transferred to 0.22 μm nitrocellulose membranes. After blocking by PBS containing 5% skim milk for 2 h at room temperature, the membranes were probed with the appropriate primary antibodies (1:500~1:1000) at 4 °C overnight, followed by the treatment of horseradish-peroxidase-conjugated secondary antibody (1:10000) at room temperature for 2 h. Subsequently, the membranes were washed with PBST, examined by enhanced chemiluminescence and the data was determined using Image J software.

T1 sequence (Q9NV35 whole entry): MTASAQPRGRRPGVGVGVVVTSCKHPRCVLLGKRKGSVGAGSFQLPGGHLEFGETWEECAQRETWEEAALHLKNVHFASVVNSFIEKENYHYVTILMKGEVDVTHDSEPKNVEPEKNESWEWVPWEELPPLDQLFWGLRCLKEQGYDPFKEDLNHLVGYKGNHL

temperature at which MTH2 became unstable (MTH2): 49 °C | temperature at which OGG1 became unstable (OGG1): 49 °C | IC50 (MGC-803 cells [2]): 2.91 ± 0.46 µM | IC50 (SGC-7901 cells): 10.4 ± 1.01 µM | IC50 (pc9 cells): 9.53 ± 0.98 µM
SMILES: C#CCSc1nc(NNC(N)=S)c(C#N)c(-c2ccc3oc(=O)ccc3c2)n1 [MI-743, 2-(5-cyano-6-(2-oxo-2H-chromen-6-yl)-2-(prop-2-yn-1-ylthio)pyrimidin-4-yl)hydrazine-1-carbothioamide]
IC50 (L02 cells): 17.3 ± 1.23 µM | IC50 (HL-7702 cells): 20.1 ± 1.76 µM | IC50 (Het-1A cells): 19.2 ± 1.89 µM | IC50 (GES-1 cells [1]): 25.5 ± 1.02 µM | IC50 (ZIP177 cells): 9.36 ± 0.92 µM | IC50 (EC109 cells): 6.99 ± 0.84 µM | IC50 (TE-1 cells): 12.8 ± 1.07 µM | colony formation (MGC-803 cells [3]): smaller and fewer colonies | colony formation (GES-1 cells [4]): no obviously inhibitory effect | levels of 8-oxo-dG (MGC-803 cells [5]): sharply increased | expression levels of p53pS15, ATMpS1981 and p21 (MGC-803 cells [6]): significantly increased
